Our source for the LC retention time values is the RepoRT retention time repository (doi:10.1021/ac300829f).

A short description of the data set: RP, Thermo Scientific Hypersil GOLD, 150 × 2.1 mm, 1.9 µm, 0.5 mL/min, estimated dead time 0.66 min; A: water + 0.1% formic acid, pH 3; B: acetonitrile + 0.1% formic acid, pH 3; gradient (min/%B) 0/0 2/0 13/100 15.5/100 19/0. As to conditions: stereoisomer not certain.

For `CC(C)CC(=O)C(=O)O` [4-methyl-2-oxovaleric acid (ketoleucine)], the LC retention time was 5.7 min. To `OCC1OC(O)C(O)C(O)C1O` (stereo not drawn) [hexose] belongs 0.9 min; to `CC(=O)NC(CC(=O)O)C(=O)O` (stereo not drawn) [N-acetylaspartic acid], 1.1 min.

With `O=CCC(O)C(O)CO` (stereo not drawn) [deoxyribose], the LC retention time was 0.9 min.

Consider `Nc1ccc(O)cc1` [4-aminophenol], for which the LC retention time is 1.1 min. On to `NCCCCNCCCN` [spermidine], for which the LC retention time is 0.8 min. As to `CC(=O)NCCc1c[nH]c2ccc(O)cc12` [N-acetyl-5-hydroxytryptamine (N-acetyl-serotonin)], the LC retention time was 5.8 min. `[NH3+]CCCCCC(=O)[O-]` [6-aminocaproic acid]: the LC retention time was 1 min. As for `NC(CCCC(=O)O)C(=O)O` (stereo not drawn) [2-aminoadipic acid], the LC retention time was 1.1 min.

On to `NCc1[nH]cc(CCC(=O)O)c1CC(=O)O` [porphobilinogen], for which the LC retention time is 4.7 min.

For `CCCCCC(=O)OC(CC(=O)[O-])C[N+](C)(C)C` (stereo not drawn) [hexanoylcarnitine], the LC retention time was 6.6 min. Consider `O=C(O)CNC(=O)c1ccc(O)cc1` [p-hydroxyhippuric acid], for which the LC retention time was 4.9 min. In the case of `Nc1ccnc(=O)[nH]1` [cytosine], the LC retention time was 1.1 min. To `COC(=O)CCCCC(=O)O` [mono-methyl-adipate] belongs 6.3 min; to `NC(=O)CCC(NC(=O)Cc1c[nH]c2ccccc12)C(=O)O` (stereo not drawn) [indoleacetyl glutamine], 6.1 min. In the case of `O=C(O)CC(=O)O` [malonic acid], the LC retention time was 1.04 min. `Cc1ncc(C=O)c(CO)c1O` [pyridoxal  isomer]: the LC retention time was 1.1 min. For `C[N+](C)(C)[O-]` [trimethylamine oxide], the LC retention time is 0.9 min. Take `CCCC(=O)OC(CC(=O)[O-])C[N+](C)(C)C` (stereo not drawn) [butyrylcarnitine]: the LC retention time was 5 min. On to `O=C(O)C(O)C(O)C(O)C(O)CO` (stereo not drawn) [gluconic acid], for which the LC retention time was 0.9 min.

With `CNc1nc2c(ncn2C2OC(CO)C(O)C2O)c(=O)[nH]1` (stereo not drawn) [N2-methylguanosine], the LC retention time is 4.4 min. Consider `CC(C)CC(N)C(=O)O` (stereo not drawn) [leucine], for which the LC retention time is 1.1 min. For the molecule `CC(=O)Nc1ccc(O)cc1` [acetaminophen], the LC retention time is 4.9 min.

For `CC(C)C(=O)NCC(=O)O` [N-isobutyrylglycine], the LC retention time was 4.1 min. As to `CCOC(=O)c1ccccc1C(=O)O` [monoethyl phthalate], the LC retention time is 7.6 min. Turning to `[NH3+]CC(=O)N1CCCC1C(=O)[O-]` (stereo not drawn) [Gly-Pro], the LC retention time was 1.1 min. As for `O=C(O)c1cccnc1` [nicotinic acid], the LC retention time is 1.1 min. To `CCC(=O)OC(CC(=O)[O-])C[N+](C)(C)C` (stereo not drawn) [propionylcarnitine] belongs 3.6 min; to `NCCc1cnc[nH]1` [histamine], 0.8 min; to `O=C(O)CNC(=O)C=Cc1ccccc1` [cinnamoylglycine], 7 min.

Take `C[N+]1(C)CCCC1C(=O)[O-]` (stereo not drawn) [stachydrine (proline betaine)]: the LC retention time is 1 min. For the molecule `CSCCC(N)C(=O)O` (stereo not drawn) [methionine], the LC retention time is 1.1 min. Take `CN1CCCC1c1cccnc1` (stereo not drawn) [nicotine]: the LC retention time was 1.1 min. With `CCCCCCCCC(=O)OC(CC(=O)[O-])C[N+](C)(C)C` (stereo not drawn) [nonanoylcarnitine], the LC retention time is 8.1 min. Take `O=c1cc[nH]c(=O)[nH]1` [uracil]: the LC retention time was 1.2 min. In the case of `O=c1[nH]c(=O)c2ncn(C3OC(CO)C(O)C3O)c2[nH]1` (stereo not drawn) [xanthosine], the LC retention time is 4.3 min. On to `O=C(O)CNC(=O)c1ccccc1` [hippuric acid], for which the LC retention time was 5.8 min.

For `CC=C(C)C(=O)NCC(=O)O` [tiglylglycine], the LC retention time was 5.2 min.
